Results as given in US20050187187A1, “Carboxyl-reduced derivatives of chondroitin sulfate, preparation thereof, use thereof as a medicinal product and the pharmaceutical compositions containing them” (Aventis Pharmas S.A., priority 2003, published 2005).

Tests used:
bovine factor Xa [1] = target: T1, bovine factor Xa (Bos taurus, UniProt P00743); assay: Inhibition of factor Xa, chromogenic substrate S-2765 with human antithrombin III; format: biochemical; conditions: calibrated against Enoxaparin standard
Method: For the calibration, a standard sample of low molecular weight heparin (Enoxaparin) was used as reference.
The serial dilutions of the assay compound are prepared in a 0.046 M Tris buffer, pH 8.4, containing 0.15 M NaCl, 0.007 M EDTA, 0.1% of Tween 80 and 0.12 IU/ml of human antithrombin III. The samples of 50 μl of the respective dilutions are incubated with 50 μl of bovine factor Xa (13.6 U/ml) at 37° C. for 80 seconds. Next, 50 μl of chromogenic substrate, 1.1 mM S-2765, are added. The absorbance at 405 nm is measured in a photometer. The activity of the deblocked factor Xa is indicated by the emission of p-nitroaniline from the substrate.
Compared to the reference heparin compound (100 U/mg), the glycosamonoglycans present a factor Xa, with much lower inhibitory activity: […]

MMP-2 (gelatinase-A) = target: T2, MMP-2 (gelatinase-A) (Homo sapiens, UniProt P08253); assay: MMP-2 inhibitory activity, commercial ELISA kit; format: biochemical; conditions: MMP-2 800 ng/ml; dilution series in PBS buffer, pH 7.5; in words
T2 construct: purchased Amersham Biosciences RPN2617
T2 sequence (P08253 110-660): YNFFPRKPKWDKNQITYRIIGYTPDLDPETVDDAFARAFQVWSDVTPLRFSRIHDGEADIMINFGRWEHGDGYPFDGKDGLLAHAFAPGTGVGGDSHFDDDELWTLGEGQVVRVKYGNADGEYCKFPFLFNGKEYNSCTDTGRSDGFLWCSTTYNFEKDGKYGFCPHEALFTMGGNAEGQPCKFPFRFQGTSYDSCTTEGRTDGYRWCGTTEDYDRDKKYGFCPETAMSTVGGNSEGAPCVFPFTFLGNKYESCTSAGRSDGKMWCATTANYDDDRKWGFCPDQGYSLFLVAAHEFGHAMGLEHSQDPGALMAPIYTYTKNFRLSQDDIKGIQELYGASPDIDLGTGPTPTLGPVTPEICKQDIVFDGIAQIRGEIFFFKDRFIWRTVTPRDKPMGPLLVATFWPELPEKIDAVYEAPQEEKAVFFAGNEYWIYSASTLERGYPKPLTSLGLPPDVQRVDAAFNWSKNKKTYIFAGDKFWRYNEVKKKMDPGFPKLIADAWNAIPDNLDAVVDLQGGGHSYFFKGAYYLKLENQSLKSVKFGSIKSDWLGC
Method: Effect of the Carboxyl-Reduced Persulfate Derivative (Example 1) for Human Metalloproteases MMP-2 (gelatinase-A) and MMP7
Commercial ELISA kits (such as those provided, for example, by the company Amersham Biosciences, kits RPN2617 and RPN2620) were used, respectively, to determine the inhibitory activity with respect to the MMP-2 and MMP-7 enzymes. The concentrations of the enzymes are, respectively, 800 ng/ml for MMP-2. The tests were carried out in accordance with the manufacturer's recommendations, by performing a series of dilutions of the compound to be studied in a PBS buffer, pH 7.5.

aggrecanase = assay: Effect on aggrecanase: conversion of recombinant substrate Agg1mut, ELISA with BC-3 antibody; format: biochemical; conditions: for % Conversion: conversion of the substrate by aggrecanase in the supernatant
Method: Effect of the carboxyl-reduced derivatives on the aggrecanase in synovial fluids or on preparations of recombinant ADAMTS protein.
The analysis is carried out on 96-well plates. Before the analysis, serial dilutions of the assay compounds are prepared in an aqueous solution.
In each well, a fixed volume of synovial fluid or aggrecanase activity generating a known increase, between 1.0 and 1.4 absorbance units (405 nm), under the conditions of the analysis, is mixed with 3 μl of solution of compound from the respective dilution step. Dulbecco's modified Eagle's medium (DMEM) is added to each well to give a final volume of 300 μl. The plate is then incubated for 1 hour at 37° C. in a carbon dioxide atmosphere.
After the addition of 5 μl of a solution of 1 μg/μl of recombinant substrate Agglmut in DMEM to each well (substrate as described by Bartnik E. et al., EP 785274, 1997), the reagent mixture is incubated for 4 hours at 37° C. under a carbon dioxide atmosphere.
In a first step, the microplate is coated with 100 μl per well of a commercial goat anti-mouse IgG antibody for 1 hour at ambient temperature (5 μg/ml in a phosphate buffered saline solution, pH 7.4 [PBS buffer]). After washing with the PBS buffer containing 0.1% of Tween-20 (washing buffer), the wells are blocked by means of a step consisting of a one hour incubation with 100 μl per well of 5% bovine serum albumin in a PBS buffer containing 0.05% of Tween-20. Following another rinse with the washing buffer, each well is incubated with 100 μl of a solution, diluted to 1:1000, of BC-3 antibody in a PBS buffer containing 0.05% of Tween 20 and 0.5% of bovine serum albumin, at ambient temperature for one hour. This antibody recognizes the typical aggrecanase cleavage fragments (Hughes C. E. et al., Biochem. J. 305 (3), 799-804, 1995).
After another rinse of the analytical plate with the washing buffer, the complete set of mixtures originating from the preceding digestion is transferred to this plate, well by well, and incubated at ambient temperature for one hour. The plate is again washed as above. Next, 100 μl of the second antibody (anti-human IgG antibody labeled with peroxidase, 1:1000 in PBS containing 0.5% of BSA and 0.05% of Tween-20) are added to each well, with subsequent incubation at ambient temperature again for one hour. After a final rinse with the washing buffer, the color development is initiated by adding 100 μl of ABTS substrate solution (2 mg/ml, 2,2′-azinobis (3-ethylbenzothiazolinesulfonic acid) in 40 mM of sodium citrate plus 60 mM of disodium hydrogen phosphate, adjusted to a pH of 4.4 by adding acetic acid; 0.25 μl of 35% hydrogen peroxide added per ml immediately before measurement). The measurement is carried out by means of the screen mode using detection at 405 nm relative to a reference filter (620 nm) with automatic readings at 5-second intervals. The development is stopped as soon as the maximum signal (405 nm) in the absorbance range of 1.0 to 1.4 is reached.
% inhibition of conversion of the substrate by activity of the aggrecanase in the supernatant.

bovine factor Xa [2] = target: T1, bovine factor Xa; conditions: standard sample used for calibration; cited from earlier work

T1 sequence (P01008 33-464 partner): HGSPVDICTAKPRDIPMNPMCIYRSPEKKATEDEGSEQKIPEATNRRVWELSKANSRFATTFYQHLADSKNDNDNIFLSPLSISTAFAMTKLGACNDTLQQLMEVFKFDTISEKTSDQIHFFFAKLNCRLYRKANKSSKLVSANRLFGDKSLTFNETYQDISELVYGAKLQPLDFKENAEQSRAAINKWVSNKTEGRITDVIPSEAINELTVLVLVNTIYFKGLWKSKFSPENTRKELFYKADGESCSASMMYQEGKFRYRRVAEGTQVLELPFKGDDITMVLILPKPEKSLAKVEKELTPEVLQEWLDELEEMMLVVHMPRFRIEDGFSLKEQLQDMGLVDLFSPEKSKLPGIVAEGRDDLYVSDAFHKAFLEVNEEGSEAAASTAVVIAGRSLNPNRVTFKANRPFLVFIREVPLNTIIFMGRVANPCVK
T1 sequence (P00743 234-492 limits assumed): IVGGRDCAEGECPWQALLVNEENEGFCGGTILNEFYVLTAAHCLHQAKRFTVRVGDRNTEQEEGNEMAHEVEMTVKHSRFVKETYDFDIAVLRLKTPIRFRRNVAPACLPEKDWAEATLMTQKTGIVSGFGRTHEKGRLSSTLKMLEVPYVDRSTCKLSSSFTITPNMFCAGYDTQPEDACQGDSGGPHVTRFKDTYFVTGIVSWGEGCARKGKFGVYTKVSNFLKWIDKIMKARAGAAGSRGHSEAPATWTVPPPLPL

Substance | factor Xa inhibitory activity (bovine factor Xa [1]) [U/mg] | inhibition of MMP-2 (MMP-2 (gelatinase-A)) | estimated IC50 (aggrecanase; aggrecanase, estimated) [ng/mL] | % Conversion (aggrecanase; glycosaminoglycan 0.0001 μg/ml) [%] | % Conversion (aggrecanase; glycosaminoglycan 0.0003 μg/ml) [%] | % Conversion (aggrecanase; glycosaminoglycan 0.001 μg/ml) [%] | % Conversion (aggrecanase; glycosaminoglycan 0.003 μg/ml) [%] | % Conversion (aggrecanase; glycosaminoglycan 0.01 μg/ml) [%] | % Conversion (aggrecanase; glycosaminoglycan 0.03 μg/ml) [%] | factor Xa inhibitory activity of the reference standard (bovine factor Xa [2]) [U/mg]
Carboxyl-Reduced and Persulfated Chondroitin Sulfate Sodium Salt [Example 1] | 1.2 | inhibited in a concentration-dependent manner | ~4 | 100 | 99.0 | 95.1 | 69.2 | 11.6 | 14.9 | 
Enoxaparin [reference heparin compound] |  |  |  |  |  |  |  |  |  | 100
